Assays:
[1] = PCC in vivo screen, blood total cholesterol in cholesterol-fed rats; settings: male Sprague-Dawley rats, diet with 5.5% peanut oil, 1.5% cholesterol, 0.3%-0.5% cholic acid, 0.05% drug in diet, one week
Text: In one in vivo screen, designated PCC, male Sprague-Dawley rats (approximately 200 g body weight) are randomly divided into groups and provided ad libidum a regular chow diet (Purina No. 5002, Ralston Purina Co., 711 West Fuesser Road, Mascoutah, Ill., 62224, USA), supplemented with 5.5% peanut oil, 1.5% cholesterol, and 0.3%-0.5% cholic acid, together with 0.05% of the test drug which is admixed into the diet. After one week the animals are etherized and a blood sample is taken from the heart and mixed with 0.14% ethylenediamine tetraacetic acid (EDTA) to measure the total cholesterol.

[2] = molecular target: T1, acyl-CoA:cholesterol acyltransferase (ACAT) (Oryctolagus cuniculus, UniProt G1SFD9); test: in vitro ACAT inhibition test (radiolabeled cholesterol oleate formed from radiolabeled oleic acid, rabbit intestinal microsomes); assay type: biochemical; settings: inhibition of acylation of cholesterol by oleic acid
T1 construct: a tissue preparation containing rabbit intestinal microsomes; from tissue; host or cells: rabbit intestinal microsomes
T1 sequence (G1SFD9 1-524): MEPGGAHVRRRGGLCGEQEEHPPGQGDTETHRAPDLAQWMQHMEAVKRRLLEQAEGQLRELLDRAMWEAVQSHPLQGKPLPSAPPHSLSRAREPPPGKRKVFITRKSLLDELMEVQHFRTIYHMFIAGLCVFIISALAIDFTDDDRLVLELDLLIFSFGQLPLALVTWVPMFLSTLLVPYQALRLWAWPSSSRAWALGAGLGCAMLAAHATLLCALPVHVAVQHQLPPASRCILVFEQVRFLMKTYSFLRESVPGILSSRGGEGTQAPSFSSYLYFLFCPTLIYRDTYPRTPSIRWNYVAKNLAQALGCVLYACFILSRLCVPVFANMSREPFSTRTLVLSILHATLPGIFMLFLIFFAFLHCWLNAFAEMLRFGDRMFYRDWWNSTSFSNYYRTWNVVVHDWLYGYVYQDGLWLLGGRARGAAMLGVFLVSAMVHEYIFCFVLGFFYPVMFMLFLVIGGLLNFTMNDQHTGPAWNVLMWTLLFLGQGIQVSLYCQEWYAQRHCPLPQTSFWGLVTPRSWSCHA
Text: As shown by the data presented below in Table 1, the compounds of the present invention are potent inhibitors of the enzyme acyl-CoA:cholesterolacyltransferase (ACAT), and are thus effective in inhibiting the esterification and transport of cholesterol across the intestinal cell wall. The compounds of the present invention are thus useful in pharmaceutical formulations for the treatment of hypercholesterolemia or atherosclerosis. The ability of representative compounds of the present invention to inhibit ACAT was measured using an in vitro test more fully described in Field, F. J. and Salone, R. G., Biochemica et Biophysica 712:557-570 (1982). The test assesses the ability of a test compound to inhibit the acylation of cholesterol by oleic acid by measuring the amount of radio-labeled cholesterol oleate formed from radiolabeled oleic acid in a tissue preparation containing rabbit intestinal microsomes. The data appear in Table 1 where they are expressed as IC50 values; i.e. the concentration of test compound required to inhibit 50% expression of the enzyme.

Row | SMILES | Blood Cholesterol [1] [mg/dL] | Blood Cholesterol % Change [1] [%] | IC50 [2] [nM]
1 | CCc1cccc(CC)c1NC(=O)NC(Cc1ccccc1)c1ccccc1 (stereo not shown) [Example 1, N-(2,6-Diethylphenyl)-N'-(1,2-diphenylethyl)urea] | 147 | -29 | 93
2 | CCc1cccc(CC)c1NC(=O)NC(c1ccccc1)c1ccccc1 [Example 2, N-(2,6-Diethylphenyl)-N'-(diphenylmethyl)urea] | 127 | -43 | 80
3 | CCc1cccc(CC)c1NC(=O)NCC(c1ccccc1)c1ccccc1 [Example 3, N-(2,6-Diethylphenyl)-N'-(2,2-diphenylethyl)urea] | 105 | -53 | 91
4 | CC(C)c1cccc(C(C)C)c1NC(=O)NCC(c1ccccc1)c1ccccc1 [Example 4, N-[2,6-bis(1-methylethyl)phenyl]-N'-(2,2-diphenylethyl)urea] | 95 | -52 | 24
5 | CC(C)c1cccc(C(C)C)c1NC(=O)NC(c1ccccc1)c1ccccc1 [Example 5, N-[2,6-bis(1-methylethyl)phenyl)-N'-(diphenylmethyl)urea] |  |  | 45

From US5116848A, “N-(((2,6-disubstituted)phenyl)-N-diarylalkyl)ureas as antihyperlipidemic and antiatherosclerotic agents” (priority 1988, dated 1992)
